Measured values as given in patent publication US10485235B2, “Aryloxypyrimidinyl ethers as herbicides” (FMC Corporation, priority 2015, dated 2019).

Legend:
Type in all cases: in vivo
[1] = test system: galium (catchweed bedstraw, Galium aparine); test: Test A postemergence, galium; conditions: Galium, post-emergence, 240 h, postemergence, 0 to 100 scale, 0 is no effect, 100 is complete control, approximately 10 days, read-out: Plant response rating, Galium; for pest or weed control at 125 g/ha: 125 g ai/ha; for pest or weed control at 31 g/ha: 31 g ai/ha
Procedure, shortened: (§1)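 Planted seeds in loam soil mixed with sand; sprayed soil directly (pre). Grew seedlings to one- to two-leaf stage, 2–10 cm; sprayed foliage (post). Held in greenhouse ~10 days. Rated injury visually vs untreated controls, 0–100.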

[2] = test system: barnyardgrass (Echinochloa crus-galli); test: Test B flooded paddy test, barnyardgrass; conditions: Echinochloa crus-galli; 250 g ai/ha, Flood; visual rating after 13 to 15 days; scale 0 to 100, 0 is no effect, 100 is complete control; read-out: Plant response rating, Barnyardgrass
Procedure, shortened: (§2)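 Visual ratings, 0 = no effect to 100 = complete control, versus controls after 13 to 15 days in greenhouse. Test compounds were added to paddy water kept 3 cm over the soil surface, on plants at 2-leaf stage.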

[3] = test system: wheat (Triticum aestivum); test: Test A postemergence, wheat; conditions: Triticum aestivum, post-emergence, 240 h, postemergence, 0 to 100 scale, 0 is no effect, 100 is complete control, approximately 10 days, read-out: Plant response rating, Wheat; for plant injury at 125 g/ha: 125 g ai/ha; for plant injury at 31 g/ha: 31 g ai/ha
Procedure, shortened: as §1

[4] = test system: foxtail, giant (giant foxtail, Setaria faberii); test: Test A postemergence, giant foxtail; conditions: Setaria faberi, post-emergence, 240 h, postemergence, 0 to 100 scale, 0 is no effect, 100 is complete control, approximately 10 days, read-out: Plant response rating, Foxtail, Giant; for pest or weed control at 125 g/ha: 125 g ai/ha; for pest or weed control at 31 g/ha: 31 g ai/ha
Procedure, shortened: as §1

[5] = test system: kochia (Kochia scoparia); test: Test A postemergence, kochia; conditions: Bassia scoparia, post-emergence, 240 h, postemergence, 0 to 100 scale, 0 is no effect, 100 is complete control, approximately 10 days, read-out: Plant response rating, Kochia; for pest or weed control at 125 g/ha: 125 g ai/ha; for pest or weed control at 31 g/ha: 31 g ai/ha
Procedure, shortened: as §1

[6] = test system: foxtail, giant (giant foxtail, Setaria faberii); test: Test A preemergence, giant foxtail; conditions: Setaria faberi, pre-emergence, 240 h, Preemergence, 0 to 100 scale (0 no effect, 100 complete control), read-out: Plant response rating, Foxtail, Giant; for pest or weed control at 125 g/ha: 125 g ai/ha; for pest or weed control at 31 g/ha: 31 g ai/ha
Procedure, shortened: as §1

[7] = test system: pigweed (Amaranthus retroflexus); test: Test A postemergence, pigweed; conditions: Amaranthus retroflexus, post-emergence, 240 h, postemergence, 0 to 100 scale, 0 is no effect, 100 is complete control, approximately 10 days, read-out: Plant response rating, Pigweed; for pest or weed control at 125 g/ha: 125 g ai/ha; for pest or weed control at 31 g/ha: 31 g ai/ha
Procedure, shortened: as §1

[8] = test system: ducksalad (Heteranthera limosa); test: Test B flooded paddy test, ducksalad; conditions: Heteranthera limosa; 250 g ai/ha, Flood; visual rating after 13 to 15 days; scale 0 to 100, 0 is no effect, 100 is complete control; read-out: Plant response rating, Ducksalad
Procedure, shortened: as §2

[9] = test system: kochia (Kochia scoparia); test: Test A preemergence, kochia; conditions: Bassia scoparia, pre-emergence, 240 h, Preemergence, 0 to 100 scale (0 no effect, 100 complete control), read-out: Plant response rating, Kochia; for pest or weed control at 125 g/ha: 125 g ai/ha; for pest or weed control at 31 g/ha: 31 g ai/ha
Procedure, shortened: as §1

[10] = test system: sedge, umbrella (small-flower umbrella sedge, Cyperus difformis); test: Test B flooded paddy test, umbrella sedge; conditions: Cyperus difformis; 250 g ai/ha, Flood; visual rating after 13 to 15 days; scale 0 to 100, 0 is no effect, 100 is complete control; read-out: Plant response rating, Sedge, Umbrella
Procedure, shortened: as §2

[11] = test system: barnyardgrass (Echinochloa crus-galli); test: Test A preemergence, barnyardgrass; conditions: Echinochloa crus-galli, pre-emergence, 240 h, Preemergence, 0 to 100 scale (0 no effect, 100 complete control), read-out: Plant response rating, Barnyardgrass; for pest or weed control at 125 g/ha: 125 g ai/ha; for pest or weed control at 31 g/ha: 31 g ai/ha
Procedure, shortened: as §1

[12] = test system: pigweed (Amaranthus retroflexus); test: Test A preemergence, pigweed; conditions: Amaranthus retroflexus, pre-emergence, 240 h, Preemergence, 0 to 100 scale (0 no effect, 100 complete control), read-out: Plant response rating, Pigweed; for pest or weed control at 125 g/ha: 125 g ai/ha; for pest or weed control at 31 g/ha: 31 g ai/ha
Procedure, shortened: as §1

[13] = test system: rice (Oryza sativa); test: Test B flooded paddy test, rice; conditions: Oryza sativa; 250 g ai/ha, Flood; visual rating after 13 to 15 days; scale 0 to 100, 0 is no effect, 100 is complete control; read-out: Plant response rating, Rice
Procedure, shortened: as §2

[14] = test system: ragweed (common ragweed, Ambrosia elatior); test: Test A preemergence, ragweed; conditions: Ambrosia artemisiifolia, pre-emergence, 240 h, Preemergence, 0 to 100 scale (0 no effect, 100 complete control), read-out: Plant response rating, Ragweed; for pest or weed control at 125 g/ha: 125 g ai/ha; for pest or weed control at 31 g/ha: 31 g ai/ha
Procedure, shortened: as §1

[15] = test system: corn (Zea mays); test: Test A postemergence, corn; conditions: Zea mays, post-emergence, 240 h, postemergence, 0 to 100 scale, 0 is no effect, 100 is complete control, approximately 10 days; for Corn plant response rating (crop injury, 0 = no effect, 100 = complete kill) at 125 g/ha: 125 g ai/ha; for Corn plant response rating (crop injury, 0 = no effect, 100 = complete kill) at 31 g/ha: 31 g ai/ha
Procedure, shortened: as §1

Compound	pest or weed control at 125 g/ha [1]	plant injury at 125 g/ha [3]	pest or weed control at 125 g/ha [4]	pest or weed control at 125 g/ha [5]	pest or weed control at 125 g/ha [6]	pest or weed control at 125 g/ha [7]	pest or weed control at 125 g/ha [9]	pest or weed control at 125 g/ha [11]	pest or weed control at 125 g/ha [12]	pest or weed control at 125 g/ha [14]	Corn plant response rating (crop injury, 0 = no effect, 100 = complete kill) at 125 g/ha [15]	pest or weed control at 31 g/ha [1]	plant injury at 31 g/ha [3]	pest or weed control at 31 g/ha [4]	pest or weed control at 31 g/ha [5]	pest or weed control at 31 g/ha [6]	pest or weed control at 31 g/ha [7]	pest or weed control at 31 g/ha [9]	pest or weed control at 31 g/ha [11]	pest or weed control at 31 g/ha [12]	further results
CCCCOc1c(Br)cccc1Oc1ncc(Cl)cn1 [Compound 13, 2-[3-bromo-2-(butoxy)phenoxy]-5-chloropyrimidine]	90%	20%	90%	100%	100%	100%	80%	100%	100%	0%	30%										pest or weed control at 500 g/ha ([1]; 500 g ai/ha): 100%; pest or weed control at 250 g/ha [2]: 0%; plant injury at 500 g/ha ([3]; 500 g ai/ha): 40%; pest or weed control at 500 g/ha ([4]; 500 g ai/ha): 100%; pest or weed control at 500 g/ha ([5]; 500 g ai/ha): 100%; pest or weed control at 500 g/ha ([6]; 500 g ai/ha): 100%; pest or weed control at 500 g/ha ([7]; 500 g ai/ha): 100%; pest or weed control at 250 g/ha [8]: 50%; pest or weed control at 500 g/ha ([9]; 500 g ai/ha): 100%; pest or weed control at 250 g/ha [10]: 95%; pest or weed control at 500 g/ha ([11]; 500 g ai/ha): 100%; pest or weed control at 500 g/ha ([12]; 500 g ai/ha): 100%; plant injury at 250 g/ha [13]: 20%; pest or weed control at 500 g/ha ([14]; 500 g ai/ha): 10%; Corn plant response rating (crop injury, 0 = no effect, 100 = complete kill) at 500 g/ha ([15]; 500 g ai/ha): 90%
N#Cc1cccc(Oc2ncc(Cl)cn2)c1OCC(F)(F)F [Compound 1]	40%	0%	20%	80%	100%	90%	100%	80%	100%	100%	10%	10%	0%	10%	60%	60%	60%	60%	10%	100%	pest or weed control at 31 g/ha [14]: 0%; Corn plant response rating (crop injury, 0 = no effect, 100 = complete kill) at 31 g/ha [15]: 10%
N#Cc1cccc(Oc2ncc(F)cn2)c1OCC(F)(F)F [Compound 41]	20%	0%	0%	60%	80%	70%	100%	40%	100%	20%	10%	10%	0%	0%	30%	20%	30%	50%	0%	100%	pest or weed control at 31 g/ha [14]: 0%; Corn plant response rating (crop injury, 0 = no effect, 100 = complete kill) at 31 g/ha [15]: 0%
